In patent US6706663B2, “Herbicidal 3-heterocyclic substituted benzisothiazole and benzisoxazole compounds” (Wyeth, priority 2000, dated 2004):

Assays:
[1] = tested on: ECHCG (Echinochloa crus-galli); assay: Postemergence herbicidal evaluation; assay type: in vivo, (L.) Beau
How it was run: (§1)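 Seedlings grown for about two weeks were sprayed postemergence and then kept under standard greenhouse care. Injury was rated visually 4–5 weeks after treatment on a 0–9 scale against untreated controls, and ratings from repeat tests were averaged.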

[2] = tested on: GLXMAW (Soybean, Williams); assay: Postemergence herbicidal evaluation; assay type: in vivo, Glycine max, (L.) Merr. cv Williams
How it was run: as §1

ZEAMX (Corn, Field) [3] = assay: Postemergence herbicidal evaluation; assay type: in vivo, Zea mays, L.
How it was run: as §1

[4] = tested on: ABUTH (Abutilon theophrasti); assay: Preemergence herbicidal evaluation; assay type: in vivo, Medic.; conditions: preemergence, rated 4-5 weeks after treatment
[5] = tested on: IPOHE (Ipomoea hederacea); assay: Preemergence herbicidal evaluation; assay type: in vivo, (L.) Jacq.; conditions: preemergence, rated 4-5 weeks after treatment
[6] = tested on: GLXMAW (Soybean, Williams); assay: Preemergence herbicidal evaluation; assay type: in vivo, Glycine max, (L.) Merr. cv Williams; conditions: preemergence, rated 4-5 weeks after treatment
[7] = tested on: TRZAWR (Wheat, Winter, cv Riband); assay: Preemergence herbicidal evaluation; assay type: in vivo, Triticum aestivum; conditions: preemergence, rated 4-5 weeks after treatment
How it was run: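 Each species was sown separately in potting soil over roughly one inch of soil, and the surface sprayed with compound dissolved in aqueous acetone. Assessment used a 0–9 visual scale against a control after four to five weeks.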

ZEAMX (Corn, Field) [8] = assay: Preemergence herbicidal evaluation; assay type: in vivo, Zea mays, L.; conditions: preemergence, rated 4-5 weeks after treatment
[9] = tested on: ECHORC (Echinochloa oryzoides); assay: Flooded paddy, preemergence weed control; assay type: in vivo, Echinochloa oryzoides (Ard.) Fritsch.; conditions: rated 3-4 weeks after treatment, 0-9 rating scale
How it was run: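 Greenhouse paddy test, preemergence. Seeds planted in the top 0.5 cm of silt loam soil, which remained flooded at 1.5–3 cm depth. Scored 0-9 by visual comparison with control.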

ORYSAT (Rice, Tebonnet) = assay: Flooded paddy, post-transplant rice tolerance; assay type: in vivo, Oryza sativa, (L.) Tebonnet; conditions: flooded paddy, post-transplant rice, rated 3-4 weeks after treatment, 0-9 rating scale
How it was run: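 Visual 0-9 rating against a control, covering stand, vigor, malformation, size, chlorosis and overall appearance. Treatment was applied after transplanting paired ten-day-old seedlings into flooded silt loam, with water kept 1.5 to 3 cm deep on greenhouse benches.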

Row | SMILES | Postemergence herbicidal rating, ECHCG ([1]; rate 0.0320 kg/ha) | Postemergence herbicidal rating, ECHCG ([1]; rate 0.0620 kg/ha) | Postemergence herbicidal rating, ECHCG ([1]; rate 0.1250 kg/ha) | Postemergence herbicidal rating, GLXMAW ([2]; rate 0.0320 kg/ha) | Postemergence herbicidal rating, GLXMAW ([2]; rate 0.0620 kg/ha) | Postemergence herbicidal rating, GLXMAW ([2]; rate 0.1250 kg/ha) | Postemergence herbicidal rating, ZEAMX (ZEAMX (Corn, Field) [3]; rate 0.0320 kg/ha) | Postemergence herbicidal rating, ZEAMX (ZEAMX (Corn, Field) [3]; rate 0.0620 kg/ha) | Postemergence herbicidal rating, ZEAMX (ZEAMX (Corn, Field) [3]; rate 0.1250 kg/ha) | ABUTH preemergence herbicidal rating ([4]; Rate 0.0620 kg/ha) | ABUTH preemergence herbicidal rating ([4]; Rate 0.1250 kg/ha) | ABUTH preemergence herbicidal rating ([4]; Rate 0.2500 kg/ha) | IPOHE preemergence herbicidal rating ([5]; Rate 0.0620 kg/ha) | IPOHE preemergence herbicidal rating ([5]; Rate 0.1250 kg/ha) | IPOHE preemergence herbicidal rating ([5]; Rate 0.2500 kg/ha) | GLXMAW preemergence herbicidal rating ([6]; Rate 0.0620 kg/ha) | GLXMAW preemergence herbicidal rating ([6]; Rate 0.1250 kg/ha) | GLXMAW preemergence herbicidal rating ([6]; Rate 0.2500 kg/ha) | TRZAWR preemergence herbicidal rating ([7]; Rate 0.0620 kg/ha) | TRZAWR preemergence herbicidal rating ([7]; Rate 0.1250 kg/ha) | also measured
1 | Cn1c(C(F)(F)F)cc(=O)n(-c2ccc3snc(-c4ccccn4)c3c2)c1=O [Compound 9, 1-methyl-3-[3-(2-pyridyl)-1,2-benzisothiazol-5-yl]-6-(trifluoromethyl)uracil] | 1.0 | 2.0 | 8.0 | 8.3 | 8.3 | 9.0 | 5.3 | 5.8 | 5.5 | 9.0 | 9.0 | 9.0 | 6.3 | 8.3 | 9.0 | 4.0 | 8.3 | 8.7 | 5.5 | 7.5 | TRZAWR preemergence herbicidal rating ([7]; Rate 0.2500 kg/ha): 8.5; ZEAMX preemergence herbicidal rating (ZEAMX (Corn, Field) [8]; Rate 0.0620 kg/ha): 6.3; ZEAMX preemergence herbicidal rating (ZEAMX (Corn, Field) [8]; Rate 0.1250 kg/ha): 6.7; ZEAMX preemergence herbicidal rating (ZEAMX (Corn, Field) [8]; Rate 0.2500 kg/ha): 7.7; herbicidal rating, ECHORC ([9]; rate 0.0080 kg/ha): 4.0; herbicidal rating, ECHORC ([9]; rate 0.0320 kg/ha): 7.0; herbicidal rating, ECHORC ([9]; rate 0.1250 kg/ha): 9.0; herbicidal rating, ORYSAT (rice tolerance) (ORYSAT (Rice, Tebonnet); rate 0.0080 kg/ha): 4.0; herbicidal rating, ORYSAT (rice tolerance) (ORYSAT (Rice, Tebonnet); rate 0.0320 kg/ha): 3.0; herbicidal rating, ORYSAT (rice tolerance) (ORYSAT (Rice, Tebonnet); rate 0.1250 kg/ha): 6.0
2 | COc1ccsc1-c1nsc2ccc(-n3c(=O)cc(C(F)(F)F)n(C)c3=O)cc12 [Compound 10, 3-[3-(3-methoxy-2-thienyl)-1,2-benzisothiazol-5-yl]-1-methyl-6-(trifluoromethyl)uracil] | 0.0 | 0.0 | 0.0 | 4.8 | 5.0 | 6.0 | 3.8 | 5.0 | 5.0 | 7.0 | 9.0 | 9.0 | 0.5 | 0.5 | 2.0 | 0.5 | 1.0 | 2.5 | 1.5 | 4.5 | TRZAWR preemergence herbicidal rating ([7]; Rate 0.2500 kg/ha): 7.0; ZEAMX preemergence herbicidal rating (ZEAMX (Corn, Field) [8]; Rate 0.0620 kg/ha): 4.0; ZEAMX preemergence herbicidal rating (ZEAMX (Corn, Field) [8]; Rate 0.1250 kg/ha): 6.5; ZEAMX preemergence herbicidal rating (ZEAMX (Corn, Field) [8]; Rate 0.2500 kg/ha): 7.0; herbicidal rating, ECHORC ([9]; rate 0.0320 kg/ha): 0.0; herbicidal rating, ECHORC ([9]; rate 0.1250 kg/ha): 5.0; herbicidal rating, ORYSAT (rice tolerance) (ORYSAT (Rice, Tebonnet); rate 0.0320 kg/ha): 0.0; herbicidal rating, ORYSAT (rice tolerance) (ORYSAT (Rice, Tebonnet); rate 0.1250 kg/ha): 4.0
3 | Cc1nnc(-c2nsc3ccc(-n4c(=O)cc(C(F)(F)F)n(C)c4=O)cc23)s1 [Compound 17, 1-methyl-3-[3-(5-methyl-1,3,4-thiadiazol-2-yl)-1,2-benzisothiazol-5-yl]-6-(trifluoromethyl)uracil] | 0.0 | 0.0 | 0.0 | 5.0 | 6.5 | 8.0 | 4.0 | 4.0 | 4.0 | 9.0 | 9.0 | 9.0 | 0.0 | 2.0 | 9.0 | 0.0 | 3.0 | 5.0 | 0.0 | 0.0 | Postemergence herbicidal rating, ECHCG ([1]; rate 0.2500 kg/ha): 0.0; Postemergence herbicidal rating, GLXMAW ([2]; rate 0.2500 kg/ha): 8.5; Postemergence herbicidal rating, ZEAMX (ZEAMX (Corn, Field) [3]; rate 0.2500 kg/ha): 5.0; TRZAWR preemergence herbicidal rating ([7]; Rate 0.2500 kg/ha): 5.0; ZEAMX preemergence herbicidal rating (ZEAMX (Corn, Field) [8]; Rate 0.0620 kg/ha): 6.0; ZEAMX preemergence herbicidal rating (ZEAMX (Corn, Field) [8]; Rate 0.1250 kg/ha): 7.0; ZEAMX preemergence herbicidal rating (ZEAMX (Corn, Field) [8]; Rate 0.2500 kg/ha): 8.0; herbicidal rating, ECHORC ([9]; rate 0.0080 kg/ha): 0.0; herbicidal rating, ECHORC ([9]; rate 0.0320 kg/ha): 3.0; herbicidal rating, ECHORC ([9]; rate 0.1250 kg/ha): 6.0; herbicidal rating, ORYSAT (rice tolerance) (ORYSAT (Rice, Tebonnet); rate 0.0080 kg/ha): 0.0; herbicidal rating, ORYSAT (rice tolerance) (ORYSAT (Rice, Tebonnet); rate 0.0320 kg/ha): 2.5; herbicidal rating, ORYSAT (rice tolerance) (ORYSAT (Rice, Tebonnet); rate 0.1250 kg/ha): 4.5
